Measured values published in patent US20230146593A1, “METHOD FOR TREATMENT AND PROPHYLAXIS OF CRS IN PATIENTS COMPRISING A COMBINATION OF BISPECIFIC ANTIBODIES BINDING TO CDS X CANCER CELL AND TNF ALPHA OR IL-6 INHIBITOR” (AMGEN INC., priority 2020, published 2023).

What was measured:
[1] = test system: Adult patients with R/R AML (CRS); conditions: human, in vivo
[2] = test system: VCAM-1 on endothelial cells (HUVEC); assay: Blinatumumab VCAM assay: VCAM-1 on CD31+ HUVEC in co-culture with T cells and NALM-6 cells (flow cytometry); format: cell-based, human; conditions: co-culture of HUVEC, isolated T cells and NALM-6 target cells
Description: FIG. 7. VCAM-1 Expression on HUVEC in AMG 103 Co-culture Assays: VCAM-1 expression by flow cytometry. […] expression levels are expressed as Median Fluorescence Intensity (MFI). VCAM-1 expressing HUVEC are expressed as percentage of CD31+ HUVEC. Error bars indicate the standard error of the mean of duplicate measurements. Two PBMC donors were used in this experiment.
The effect of blinatumumab (AMG 103) on T cell activation and the induction of VCAM-1 on endothelial cells was analyzed in co-cultures of HUVEC, isolated T cells and CD19-expressing NALM-6 target cells. VCAM-1 expression on CD31+ HUVEC was analyzed by flow cytometry.

[3] = test system: TNF; assay: TNF levels in patients after blinatumomab in cycle 1; format: in vivo, human

| Compound | CRS events per patient [1] [per patient] | average duration of CRS events [1] | VCAM-1 expression on CD31+ HUVEC [2] | time to maximum TNF levels [3] [h] |
| --- | --- | --- | --- | --- |
| C[C@@H]1C[C@H]2[C@@H]3CCC4=CC(=O)C=C[C@]4(C)[C@@]3(F)[C@@H](O)C[C@]2(C)[C@@]1(O)C(=O)CO [dexamethasone] | 2.3 | (b) average duration: 58 hrs |  |  |
| blinatumomab |  |  | up-regulated | ≤ 2 |
